Values quoted from earlier work in patent US20240327432A1, “THIOPHENE-PHENOTHIAZINE COMPOUNDS AND SYNTHESIS METHOD THEREOF, AS WELL AS APPLICATION THEREOF IN PREPARATION OF PHOTOTHERAPY MEDICINES” (Guangzhou Medical University, priority 2023, published 2024).

System: 4T1 subcutaneous tumors
Settings: comparison from prior knowledge; cited from earlier work

For porfimer sodium, the “metabolic time in the bodies” value is given as “about ten weeks”.
